Target: T1, human orexin type 2 receptor (hOX2R) (Homo sapiens, UniProt O43614)
T1 construct: expressed in transfected cells
T1 sequence (O43614 1-444): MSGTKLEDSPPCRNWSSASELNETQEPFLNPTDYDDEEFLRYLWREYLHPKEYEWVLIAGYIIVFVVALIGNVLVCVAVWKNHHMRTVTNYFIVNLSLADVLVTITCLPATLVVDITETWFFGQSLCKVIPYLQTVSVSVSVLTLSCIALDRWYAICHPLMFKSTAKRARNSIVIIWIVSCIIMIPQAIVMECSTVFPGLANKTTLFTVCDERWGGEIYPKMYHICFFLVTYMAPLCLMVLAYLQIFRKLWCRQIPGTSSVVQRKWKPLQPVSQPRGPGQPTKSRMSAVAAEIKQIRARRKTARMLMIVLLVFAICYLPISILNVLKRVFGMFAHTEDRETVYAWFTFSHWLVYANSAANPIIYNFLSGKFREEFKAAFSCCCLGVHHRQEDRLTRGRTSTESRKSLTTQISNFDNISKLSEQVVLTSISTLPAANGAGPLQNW
Experiment: Measurement of orexin type 2 receptor agonist activity (FLIPR calcium fluorescence)
Format: cell-based
Conditions: CHO cells expressing hOX2R, FLIPR calcium fluorescence; for EC50: read-out: hOx2 pEC50 (converted); for Emax: CHO, read-out: hOx2 Emax (%)
Procedure, shortened: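 Agonism was read as fluorescence in cells stably expressing human OX2R. E. is the response at 10 μM relative to orexin A as full agonist (100%).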

Compound	EC50 [nM]	Emax [%]
CC(C)S(=O)(=O)N[C@@H]1[C@H](Cc2cccc(-c3ccccc3)c2F)N(C(=O)[C@H]2CCO2)CC12CC2 [Compound 162, N-((6S,7S)-6-((2-fluoro-[1,1′-biphenyl]-3-yl)methyl)-5-((R)-oxetane-2-carbonyl)-5-azaspiro[2.4]heptan-7-yl)propane-2-sulfonamide]	1 to 10	90 to 100
O=C([C@H]1CCO1)N1CC2(CC2)[C@H](NS(=O)(=O)CF)[C@@H]1Cc1cccc(-c2cccc(C(F)(F)F)c2)c1F [Compound 197, 1-fluoro-N-((6S,7S)-6-((2-fluoro-3′-(trifluoromethyl)-[1,1′-biphenyl]-3-yl)methyl)-5-((R)-oxetane-2-carbonyl)-5-azaspiro[2.4]heptan-7-yl)methanesulfonamide]	10 to 100	80 to 90
CS(=O)(=O)N[C@H]1[C@@H](Cc2cccc(-c3ccccc3)c2F)N(C(=O)[C@H]2CCO2)CC12CC2 [Compound 22, N-((6R,7R)-6-((2-fluoro-[1,1′-biphenyl]-3-yl)methyl)-5-((R)-oxetane-2-carbonyl)-5-azaspiro[2.4]heptan-7-yl)methanesulfonamide]	100 to 1000	90 to 100
CS(=O)(=O)N[C@@H]1[C@H](Cc2cccc(-c3cc(F)cc(F)c3)c2F)N(C(=O)N2CCC2)CC12CC2 [Compound 32, N-((6S,7S)-5-(azetidine-1-carbonyl)-6-((2,3′,5′-trifluoro-[1,1′-biphenyl]-3-yl)methyl)-5-azaspiro[2.4]heptan-7-yl)methanesulfonamide]	0.0794 to 1	90 to 100
COC[C@H](F)C(=O)N1CC2(CC2)[C@H](NS(=O)(=O)CF)[C@@H]1Cc1cccc(-c2ccccc2)c1F [Compound 224, 1-fluoro-N-((6S,7S)-5-((S)-2-fluoro-3-methoxypropanoyl)-6-((2-fluoro-[1,1′-biphenyl]-3-yl)methyl)-5-azaspiro[2.4]heptan-7-yl)methanesulfonamide]	1 to 10	90 to 100
COCCOCCS(=O)(=O)N[C@@H]1[C@H](Cc2cccc(-c3ccccc3)c2)N(C(=O)[C@H]2CCO2)CC12CC2 [Compound 74, N-((6S,7S)-6-([1,1′-biphenyl]-3-ylmethyl)-5-((R)-oxetane-2-carbonyl)-5-azaspiro[2.4]heptan-7-yl)-2-(2-methoxyethoxy)ethane-1-sulfonamide]	10 to 100	90 to 100
CC(C)C(=O)N1CC2(CC2)[C@@H](NS(C)(=O)=O)[C@H]1Cc1cccc(-c2ccccc2)c1 [Compound 16, N-((6R,7R)-6-([1,1′-biphenyl]-3-ylmethyl)-5-isobutyryl-5-azaspiro[2.4]heptan-7-yl)methanesulfonamide]	100 to 1000	50 to 60
CS(=O)(=O)N[C@@H]1[C@H](Cc2cccc(-c3ccccc3)c2)N(C(=O)C2(C#N)CCC2)CC12CC2 (racemic) [Compound 295]	10 to 100	90 to 100
O=C(NCC1(F)CC1)N1CC2(CC2)[C@H](NS(=O)(=O)CF)[C@@H]1Cc1cccc(-c2ccccc2)c1F [Compound 157, (6S,7S)-6-((2-fluoro-[1,1′-biphenyl]-3-yl)methyl)-N-((1-fluorocyclopropyl)methyl)-7-((fluoromethyl)sulfonamido)-5-azaspiro[2.4]heptane-5-carboxamide]	0.0794 to 1	90 to 100
CC[C@@H](O)C(=O)N1CC2(CC2)[C@H](NS(C)(=O)=O)[C@@H]1Cc1cccc(-c2ccccc2)c1 (racemic) [Compound 300]	10 to 100	90 to 100
CS(=O)(=O)N[C@@H]1[C@H](Cc2cccc(-c3ccccc3)c2F)N(C(=O)[C@@H]2CCO2)CC12CC2 [Compound 20, N-((6S,7S)-6-((2-fluoro-[1,1′-biphenyl]-3-yl)methyl)-5-((S)-oxetane-2-carbonyl)-5-azaspiro[2.4]heptan-7-yl)methanesulfonamide]	10 to 100	90 to 100
COC1CN(C(=O)N2CC3(CC3)[C@H](NS(=O)(=O)N(C)C)[C@@H]2Cc2cccc(-c3ccccc3)c2F)C1 [Compound 118, N-((6S,7S)-6-((2-fluoro-[1,1′-biphenyl]-3-yl)methyl)-5-(3-methoxyazetidine-1-carbonyl)-5-azaspiro[2.4]heptan-7-yl)-N,N-dimethylsulfuric diamide]	1 to 10	90 to 100
CC(C)(O)C(=O)N1CC2(CC2)[C@H](NS(=O)(=O)C(F)F)[C@@H]1Cc1cccc(-c2cc(F)cc(F)c2)c1F [Compound 195, 1,1-difluoro-N-((6S,7S)-5-(2-hydroxy-2-methylpropanoyl)-6-((2,3′,5′-trifluoro-[1,1′-biphenyl]-3-yl)methyl)-5-azaspiro[2.4]heptan-7-yl)methanesulfonamide]	1 to 10	90 to 100
CCNC(=O)N1CC2(CC2)C(NS(=O)(=O)CF)C1Cc1cccc(-c2ccccc2)c1F (racemic) [Compound 109, N-ethyl-6-((2-fluoro-[1,1′-biphenyl]-3-yl)methyl)-7-((fluoromethyl)sulfonamido)-5-azaspiro[2.4]heptane-5-carboxamide]	0.0794 to 1	90 to 100
CC(C)(C)C(=O)N1CC2(CC2)C(NS(C)(=O)=O)C1Cc1cccc(-c2cccc(F)c2)c1F (racemic) [Compound 23]	10 to 100	90 to 100
CC1CN(C(=O)N2CC3(CC3)C(NS(C)(=O)=O)C2Cc2cccc(-c3ccccc3)c2)C1 (racemic) [Compound 57, N-(6-([1,1′-biphenyl]-3-ylmethyl)-5-(3-methylazetidine-1-carbonyl)-5-azaspiro[2.4]heptan-7-yl)methanesulfonamide]	1 to 10	90 to 100
C[C@H](CF)NC(=O)N1CC2(CC2)[C@H](NS(C)(=O)=O)[C@@H]1Cc1cccc(-c2ccccc2)c1F [Compound 101, (6S,7S)-6-((2-fluoro-[1,1′-biphenyl]-3-yl)methyl)-N-((R)-1-fluoropropan-2-yl)-7-(methylsulfonamido)-5-azaspiro[2.4]heptane-5-carboxamide]	0.0794 to 1	90 to 100

Other lines, results leading:

EC50 [nM]	Emax [%]	Compound
1 to 10	90 to 100	CS(=O)(=O)N[C@@H]1[C@H](Cc2cccc(-c3ccccc3)c2F)N(C(=O)NC[C@H]2CCOC2)CC12CC2 [Compound 335, (6S,7S)-6-((2-fluoro-[1,1′-biphenyl]-3-yl)methyl)-7-(methylsulfonamido)-N-(((R)-tetrahydrofuran-3-yl)methyl)-5-azaspiro[2.4]heptane-5-carboxamide]
0.0794 to 1	90 to 100	CC(C#N)NC(=O)N1CC2(CC2)[C@H](NS(C)(=O)=O)[C@@H]1Cc1cccc(-c2ccccc2)c1F (stereo partly drawn) [Compound 341, (6S,7S)-N-(1-cyanoethyl)-6-((2-fluoro-[1,1′-biphenyl]-3-yl)methyl)-7-(methylsulfonamido)-5-azaspiro[2.4]heptane-5-carboxamide]
1 to 10	90 to 100	CS(=O)(=O)N[C@@H]1[C@H](Cc2cccc(-c3ccccc3)c2)N(C(=O)C2CCC2)CC12CC2 (racemic) [Compound 302, N-(-6-([1,1′-biphenyl]-3-ylmethyl)-5-(cyclobutanecarbonyl)-5-azaspiro[2.4]heptan-7-yl)methanesulfonamide]
1 to 10	90 to 100	CCNC(=O)N1CC2(CC2)[C@H](NS(C)(=O)=O)[C@@H]1Cc1cccc(-c2ccccc2)c1 (racemic) [Compound 303, 6-([1,1′-biphenyl]-3-ylmethyl)-N-ethyl-7-(methylsulfonamido)-5-azaspiro[2.4]heptane-5-carboxamide]
10 to 100	90 to 100	CS(=O)(=O)N[C@@H]1[C@H](Cc2cccc(-c3ccccc3)c2)N(C(=O)[C@H]2C[C@@H](F)C2)CC12CC2 (racemic) [Compound 308, N-(-6-([1,1′-biphenyl]-3-ylmethyl)-5-((1s,3R)-3-fluorocyclobutane-1-carbonyl)-5-azaspiro[2.4]heptan-7-yl)methanesulfonamide]
1 to 10	90 to 100	CS(=O)(=O)N[C@@H]1[C@H](Cc2cccc(-c3ccccc3)c2F)N(C(=O)NCCC#N)CC12CC2 [Compound 330, (6S,7S)-N-(2-cyanoethyl)-6-((2-fluoro-[1,1′-biphenyl]-3-yl)methyl)-7-(methylsulfonamido)-5-azaspiro[2.4]heptane-5-carboxamide]
10 to 100	90 to 100	[2H]C([2H])([2H])N(C(=O)N1CC2(CC2)[C@H](NS(C)(=O)=O)[C@@H]1Cc1cc(F)cc(-c2ccccc2)c1F)C([2H])([2H])[2H] [Compound 355, (6S,7S)-6-((2,5-difluoro-[1,1′-biphenyl]-3-yl)methyl)-N,N-bis(methyl-d3)-7-(methylsulfonamido)-5-azaspiro[2.4]heptane-5-carboxamide]
1 to 10	90 to 100	C[C@@H](F)C(=O)N1CC2(CC2)[C@H](NS(=O)(=O)CF)[C@@H]1Cc1cc(F)cc(-c2ccccc2)c1F [Compound 418]
0.0794 to 1	90 to 100	O=C(NCCF)N1CC2(CC2)[C@H](NS(=O)(=O)CF)[C@@H]1Cc1cccc(-c2ccccc2)c1F [Compound 367, (6S,7S)-6-((2-fluoro-[1,1′-biphenyl]-3-yl)methyl)-N-(2-fluoroethyl)-7-((fluoromethyl)sulfonamido)-5-azaspiro[2.4]heptane-5-carboxamide]

Reference: patent publication US12503475B2 (Centessa Pharmaceuticals (UK) Limited, priority 2020, dated 2025)
